# Data reported in patent US20120282169A1, “DETECTION AND TREATMENT OF TRAUMATIC BRAIN INJURY” (Adlyfe, Inc., priority 2009, published 2012).
# [ ]: non-standard residue; d: D form. The star is where a group is joined. Butanoyl(4-pyren-1-yl) = O=C(CCCc1ccc2ccc3cccc4ccc1c2c34)*; Biotin = O=C1N[C@H]2[C@H](CS[C@H]2CCCCC(=O)*)N1
# B1: peptide probe of SEQ ID NO:41 (peptide)
# peptide: {Butanoyl(4-pyren-1-yl)}-KLVFFAEDVGSNKHAIIELMK(Butanoyl(4-pyren-1-yl))GLVPRGSGK(Biotin)-NH2
# SMILES: CC[C@H](C)[C@H](NC(=O)[C@H](C)NC(=O)[C@H](Cc1c[nH]cn1)NC(=O)[C@H](CCCCN)NC(=O)[C@H](CC(N)=O)NC(=O)[C@H](CO)NC(=O)CNC(=O)[C@@H](NC(=O)[C@H](CC(=O)O)NC(=O)[C@H](CCC(=O)O)NC(=O)[C@H](C)NC(=O)[C@H](Cc1ccccc1)NC(=O)[C@H](Cc1ccccc1)NC(=O)[C@@H](NC(=O)[C@H](CC(C)C)NC(=O)[C@H](CCCCN)NC(=O)CCCc1ccc2ccc3cccc4ccc1c2c34)C(C)C)C(C)C)C(=O)N[C@H](C(=O)N[C@@H](CCC(=O)O)C(=O)N[C@@H](CC(C)C)C(=O)N[C@@H](CCSC)C(=O)N[C@@H](CCCCNC(=O)CCCc1ccc2ccc3cccc4ccc1c2c34)C(=O)NCC(=O)N[C@@H](CC(C)C)C(=O)N[C@H](C(=O)N1CCC[C@H]1C(=O)N[C@@H](CCCNC(=N)N)C(=O)NCC(=O)N[C@@H](CO)C(=O)NCC(=O)N[C@@H](CCCCNC(=O)CCCC[C@@H]1SC[C@@H]2NC(=O)N[C@@H]21)C(N)=O)C(C)C)[C@@H](C)CC
# notes: P22 with a thrombin site linker and biotin at the C-terminus, immobilised on streptavidin-coated plates; also called AD317; biotinylated peptide probe
# How the values were obtained:
# Aβ42 monomer [1] = target: T1, Aβ42 monomer (Homo sapiens, UniProt P05067); assay: Self-fluorescence specificity assay of probe in 10% human CSF; type: binding; details: 70 nM probe; 10% (v/v) normal human CSF; FIG. 2
# Method: (§1) The specificity of the probe is confirmed as follows. 70 nM of the peptide probe of SEQ ID NO:22 is incubated with several potential substrates in a solution consisting of 10 mM Hepes (pH 7.0), 0.0074% Tween20 and 10% (v/v) normal human CSF. […] There also is a significant response to Aβ42 fiber down to at least […]. […] Since fibers are easily removed from the reaction by a centrifugation step, specificity for amyloid beta oligomers is easily obtained.
# human serum albumin [2] = target: T2, human serum albumin (Homo sapiens, UniProt P02768); assay: as above; type: binding; details: 70 nM probe; 10% (v/v) normal human CSF; except at the highest dose, 0.16 mg/mL; FIG. 2
# Method: as §1
# Aβ40 fiber = Aβ40 fiber (Homo sapiens, UniProt P05067); assay: as above; type: binding; details: 70 nM probe; 10% (v/v) normal human CSF; FIG. 2
# Method: as §1
# carbonic anhydrase = assay: as above; type: binding; details: 70 nM probe; 10% (v/v) normal human CSF; FIG. 2
# Method: as §1
# Aβ40 monomer [3] = target: T3, Aβ40 monomer (Homo sapiens, UniProt P05067); assay: as above; type: binding; details: 70 nM probe; 10% (v/v) normal human CSF; FIG. 2
# Method: as §1
# synthetic Aβ42 oligomer = synthetic Aβ42 oligomer (Homo sapiens, UniProt P05067); assay: Self-fluorescence assay of pyrene-labeled probe with synthetic Aβ42 oligomer; type: binding; details: 70 nM probe
# Method: 70 nM of the peptide probe of SEQ ID NO:2 is incubated with 4000, 2000, 1000, 450, 250 and 0 pM synthetic Aβ42 oligomer (in triplicate) in a solution consisting of 10 mM Hepes (pH 7.0), 0.0074% Tween20 and 30% (v/v) normal human CSF (Bioreclamations, Inc.) for 0, 3, and 18 hours at room temperature in a final volume of 200 μL in a microtiter plate. The plate is then analyzed using a Tecan safire^2 fluorescence plate reader. For each sample, the net self-fluorescence response (fluorescence emission from 370-385 nm) is determined by subtraction of the self-fluorescence response of the control (0 pM) from the fluorescence response of the experimental sample.
# The specificity of the probe is confirmed as follows. 70 nM of the peptide probe of SEQ ID NO:22 is incubated with several potential substrates in a solution consisting of 10 mM Hepes (pH 7.0), 0.0074% Tween20 and 10% (v/v) normal human CSF. […] There also is a significant response to Aβ42 fiber down to at least 100 nN. […]
# 70 nM of each of the two peptoid probes 1 or 2 is incubated with 15, 5, 1.5 or 0 nM synthetic Aβ42 oligomer (in triplicate). […] The plate is then analyzed using a Tecan safire^2 fluorescence plate reader. For each sample, the self-fluorescence response (fluorescence emission from 370-385 nm) of the peptoid is plotted as a function of amyloid beta aggregate concentration.
# Aβ42 fiber = Aβ42 fiber (Homo sapiens, UniProt P05067); assay: Self-fluorescence specificity assay of probe in 10% human CSF; type: binding; design: unit not given here; details: 70 nM probe; 10% (v/v) normal human CSF; FIG. 2
# Method: as §1
# Aβ40 Dimer = details: Mouse
# Method: (§2) A plate-based ELISA-like assay was developed in which the above-described peptide probes may be used to capture and detect target amyloid beta protein (such as oligomers). […] Streptavidin-coated 96-well plates are prepared, followed by introduction of biotinylated peptide. Sample is then added to the wells and allowed to incubate, such as for two hours at room temperature. Any target amyloid beta protein in the sample will be capture by the immobilized peptide probe. The plate is then washed, such as using a low salt buffer to eliminate potential interfering factors (e.g. endogenous proteins, lipids, and other debris). The remaining amyloid beta aggregate-peptide probe complex is bound to a reporter antibody that is specific for the N-terminus of the amyloid beta sequence (6E10-HRP), and detected by addition of 3,3′,5,5′-tetramethylbenzidine (TMB).
# (§3) Soluble brain extracts are prepared according to a known method. For example 5 mL tris-buffered saline (PH 7.4) is added per gram of frozen brain tissue, and then homogenized with a dounce homogenizer (25 strokes). The material is then centrifuged at 21,900× g for 30 minutes at 4 C. The resulting TBS supernatant (soluble extract) is used at 10-30% (v/v) final concentration in the following assays.
# Aβ42 monomer [4] = target: T1, Aβ42 monomer; assay: Plate-based ELISA-like assay with immobilized biotinylated peptide probe; type: binding; details: for Limit of detection, Aβ42 Monomer: up to 15 nM
# Method: as §2, §3
# Aβ42 Oligo (Type B) = Aβ42 Oligo (Type B) (Homo sapiens, UniProt P05067); assay: as above; type: binding
# Method: as §2, §3
# human serum albumin [5] = target: T2, human serum albumin; assay: as above; type: binding
# Method: as §2, §3
# Aβ40 monomer [6] = target: T3, Aβ40 monomer; assay: as above; type: binding; details: for Limit of detection, Aβ40 Monomer: up to 15 nM
# Method: as §2, §3
# [7] = target: synthetic Aβ42 oligomer (Aβ42 Oligo Type A) (Homo sapiens, UniProt P05067); assay: Plate-based ELISA-like assay with immobilized biotinylated peptide probe (6E10-HRP/TMB detection); type: binding
# Method: FIG. 4A and FIG. 4B illustrate the results in buffer and 10% soluble mouse brain extract using SEQ ID NO:41 as a peptide probe. […] The white bars indicate control reactions in which peptide are not added. Black bars show the complete reaction in which 9000, 1500, 250, 42, 7, 1.2, 0.2, or 0 pM Aβ42 oligomer is added (in triplicate) to wells containing bound peptide probe of SEQ ID NO:41.
# The white bars indicate control reactions in which peptide are not added. Black bars show the complete reaction in which 10% human TBS brain extract containing 750, 250, 85, 28, 9.5, 3.1, or 0 pM Aβ42 oligomer is added (in triplicate) to wells containing bound peptide probe of SEQ ID NO:41.
# FIG. 5A and FIG. 5B illustrate the results in 10% (A) and 30% (B) human brain TBS extract using SEQ ID NO:41 as a peptide probe. […] The white bars indicate control reactions in which peptide is not added. Black bars show the complete reaction in which 10% human TBS brain extract containing 750, 250, 85 or 0 pM Aβ42 oligomer is added (in triplicate) to wells containing bound peptide probe of SEQ ID NO:41.
# The white bars indicate control reactions in which peptide are not added. Black bars show the complete reaction in which 30% human TBS brain extract containing 750, 250, 85, 28, 9.5, 3.1, or 0 pM Aβ42 oligomer is added (in triplicate) to wells containing bound peptide probe of SEQ ID NO:41.
# human serum albumin [8] = target: human serum albumin (human, UniProt P02768 25-609); assay: plate assay, biotinylated probe on streptavidin plate, 6E10-HRP/TMB detection; Human column (brain extract)
molecule,measurement,setting,value
"PBA-KLVFFAEDVGSNKGAIIGLMK(PBA)rr-NH2 ({Butanoyl(4-pyren-1-yl)}-KLVFFAEDVGSNKGAIIGLMK(Butanoyl(4-pyren-1-yl))[dR][dR]-NH2; SMILES CC[C@H](C)[C@H](NC(=O)[C@H](C)NC(=O)CNC(=O)[C@H](CCCCN)NC(=O)[C@H](CC(N)=O)NC(=O)[C@H](CO)NC(=O)CNC(=O)[C@@H](NC(=O)[C@H](CC(=O)O)NC(=O)[C@H](CCC(=O)O)NC(=O)[C@H](C)NC(=O)[C@H](Cc1ccccc1)NC(=O)[C@H](Cc1ccccc1)NC(=O)[C@@H](NC(=O)[C@H](CC(C)C)NC(=O)[C@H](CCCCN)NC(=O)CCCc1ccc2ccc3cccc4ccc1c2c34)C(C)C)C(C)C)C(=O)N[C@H](C(=O)NCC(=O)N[C@@H](CC(C)C)C(=O)N[C@@H](CCSC)C(=O)N[C@@H](CCCCNC(=O)CCCc1ccc2ccc3cccc4ccc1c2c34)C(=O)N[C@H](CCCNC(=N)N)C(=O)N[C@H](CCCNC(=N)N)C(N)=O)[C@@H](C)CC) [SEQ ID NO:22, WT, with 2 C-terminal dArg residues, and alternate label site]",peptide fluorescence response to Aβ42 monomer,Aβ42 monomer [1],little or no peptide fluorescence response
same,peptide fluorescence response to human serum albumin,human serum albumin [2],little or no peptide fluorescence response
same,peptide fluorescence response to Aβ40 fiber,Aβ40 fiber,little or no peptide fluorescence response
same,peptide fluorescence response to carbonic anhydrase,carbonic anhydrase,little or no peptide fluorescence response
same,peptide fluorescence response to Aβ40 monomer,Aβ40 monomer [3],little or no peptide fluorescence response
same,peptide probe fluorescence response to Aβ42 oligomer,"synthetic Aβ42 oligomer; 10% (v/v) normal human CSF, FIG. 2",strong and dose-dependent response
same,lowest Aβ42 fiber concentration giving significant response,Aβ42 fiber,≤ 100
"PBA-KLVFFAEDVGSNKHAIIELMK(PBA)-NH2 ({Butanoyl(4-pyren-1-yl)}-KLVFFAEDVGSNKHAIIELMK(Butanoyl(4-pyren-1-yl))-NH2; SMILES CC[C@H](C)[C@H](NC(=O)[C@H](C)NC(=O)[C@H](Cc1c[nH]cn1)NC(=O)[C@H](CCCCN)NC(=O)[C@H](CC(N)=O)NC(=O)[C@H](CO)NC(=O)CNC(=O)[C@@H](NC(=O)[C@H](CC(=O)O)NC(=O)[C@H](CCC(=O)O)NC(=O)[C@H](C)NC(=O)[C@H](Cc1ccccc1)NC(=O)[C@H](Cc1ccccc1)NC(=O)[C@@H](NC(=O)[C@H](CC(C)C)NC(=O)[C@H](CCCCN)NC(=O)CCCc1ccc2ccc3cccc4ccc1c2c34)C(C)C)C(C)C)C(=O)N[C@H](C(=O)N[C@@H](CCC(=O)O)C(=O)N[C@@H](CC(C)C)C(=O)N[C@@H](CCSC)C(=O)N[C@@H](CCCCNC(=O)CCCc1ccc2ccc3cccc4ccc1c2c34)C(N)=O)[C@@H](C)CC) [SEQ ID NO:2, Salt bridge at G29H and G33E]","Aβ42 oligomer concentration statistically distinguishable from the control reaction (net self-fluorescence response, t-test)","synthetic Aβ42 oligomer; 10 mM Hepes pH 7.0, 0.0074% Tween20, 30% (v/v) normal human CSF, emission 370-385 nm, FIG. 1",450 pM
PBA-KLVFFAEDVGSNKHAIIELMK(PBA)GLVPR GSGK(biotin)-NH2 [SEQ ID NO:41],"Limit of detection, Aβ40 Dimer",Aβ40 Dimer,850 pM
same,"Limit of detection, Aβ42 Monomer",Aβ42 monomer [4]; Human,Not detected
same,"Limit of detection, Aβ42 Monomer",Aβ42 monomer [4]; Mouse,Not detected
same,TMB response to Aβ42 monomer,Aβ42 monomer [4]; plate assay,little to no TMB response
same,"Limit of detection, Aβ42 Oligo (Type B)",Aβ42 Oligo (Type B); Human,8.5 pM
same,"Limit of detection, Aβ42 Oligo (Type B)",Aβ42 Oligo (Type B); Mouse,~8.5 pM
same,"Limit of detection, has","human serum albumin [5]; Human, up to 0.15 mg/mL",Not detected
same,"Limit of detection, has",human serum albumin [5]; Mouse,Not detected
same,TMB response to human serum albumin,human serum albumin [5]; plate assay,little to no TMB response
same,"Limit of detection, Aβ40 Monomer",Aβ40 monomer [6]; Human,Not detected
same,"Limit of detection, Aβ40 Monomer",Aβ40 monomer [6]; Mouse,Not detected
same,TMB response to Aβ40 monomer,Aβ40 monomer [6]; plate assay,little to no TMB response
same,lowest amount of amyloid beta aggregate detected in plate assay (t-test),"[7]; 10% human TBS brain extract, FIG. 4B",28 pM
same,amyloid beta aggregate detectable down to,"[7]; 30% human TBS brain extract, FIG. 5B",≤ 85 pM
same,"Limit of detection, Aβ42 Oligo (Type A)",[7]; Human,~28 pM
same,"Limit of detection, Aβ42 Oligo (Type A)",[7]; Mouse,~28 to 85 pM
same,lowest amount of amyloid beta aggregate detected in plate assay (t-test),"[7]; buffer system, FIG. 4A",7 pM
B1,binding result,human serum albumin [8],no binding (tested: up to 0.15 mg/mL)
